Our source for the IC50 values is ChEMBL document CHEMBL1146452, “Saponins from the flower buds of Buddleja officinalis” (J Nat Prod, 2004).

SMILES strings stand for the structures.

The assay relates to HL-60. Kind of assay: Cytotoxicity against human HL60 cells by MTT assay. It counts as functional, cell-based.
For the compound `C[C@@H]1O[C@@H](O[C@H]2[C@H](O)[C@@H](O)[C@H](O[C@H]3[C@@H](O)[C@@H](C)O[C@@H](O[C@H]4CC[C@@]5(C)[C@@H](CC[C@]6(C)[C@@H]5C=CC5=C7CC(C)(C)CC[C@]7(CO)[C@@H](O)C[C@]56C)[C@]4(C)CO)[C@@H]3O[C@@H]3O[C@H](CO)[C@@H](O)[C@H](O)[C@H]3O)O[C@@H]2CO)[C@H](O)[C@H](O)[C@H]1O` [MIMENGOSIDE C], the IC50 (in general, the concentration that inhibits the measured activity by half) came to 23.2 µM.
In the case of `C[C@H]1O[C@@H](O[C@H]2CC[C@@]3(C)[C@@H](CC[C@]4(C)[C@@H]3C=CC3=C5CC(C)(C)CC[C@]5(CO)[C@@H](O)C[C@]34C)[C@]2(C)CO)[C@H](O)[C@@H](O[C@@H]2O[C@H](CO)[C@@H](O[C@@H]3OC[C@@H](O)[C@H](O)[C@H]3O)[C@H](O)[C@H]2O)[C@H]1O` [MIMENGOSIDE D] it was 26.7 µM.
In the case of `C[C@@H]1O[C@@H](O[C@H]2[C@H](O)[C@@H](O)[C@H](O[C@H]3[C@@H](O)[C@@H](C)O[C@@H](O[C@H]4CC[C@]5(C)C6=CC=C7[C@@H]8CC(C)(C)CC[C@]8(CO)[C@@H](O)C[C@@]7(C)[C@]6(C)CC[C@H]5[C@]4(C)CO)[C@@H]3O[C@@H]3O[C@H](CO)[C@@H](O)[C@H](O)[C@H]3O)O[C@@H]2CO)[C@H](O)[C@H](O)[C@H]1O` [MIMENGOSIDE E] it was 16.8 µM.
The figure for `C[C@H]1O[C@@H](O[C@H]2CC[C@]3(C)C4=CC=C5[C@@H]6CC(C)(C)CC[C@]6(CO)[C@@H](O)C[C@@]5(C)[C@]4(C)CC[C@H]3[C@]2(C)CO)[C@H](O)[C@@H](O[C@@H]2O[C@H](CO)[C@@H](O[C@@H]3OC[C@@H](O)[C@H](O)[C@H]3O)[C@H](O)[C@H]2O)[C@H]1O` [MIMENGOSIDE F] is 22.7 µM.
